Data taken from US20230085307A1, “PYRIDAZINONE COMPOUND AND HERBICIDE” (NISSAN CHEMICAL CORPORATION, priority 2019, published 2023).

How the values were obtained:
[1] = tested on: southern crabgrass; assay: Test Example 4: herbicidal effect by soil treatment (Table 19, symbol F); type: in vivo, southern crabgrass (Digitaria ciliaris); details: amount of applied herbicide 320 g/ha
Summary of the method: (§1)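 Pre-emergence style soil spray: seeds under ~1.5 cm sterilized diluvial soil received a uniform coat of emulsion diluted to the predetermined herbicide amount. Greenhouse 25–30° C; readout at week three on previously defined criteria.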

[2] = tested on: windgrass; assay: Test Example 4: herbicidal effect by soil treatment (Table 19, symbol L); type: in vivo, windgrass (Apera spica-venti); details: amount of applied herbicide 320 g/ha
Summary of the method: as §1

[3] = tested on: Italian ryegrass; assay: Test Example 5: herbicidal effect by foliage application, plastic box (Table 20, symbol K); type: in vivo, Italian ryegrass (Lolium multiflorum); details: foliage application, 320 g/ha, evaluated three weeks after application
Summary of the method: (§2)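 Plants were sown into sterilized diluvial soil under about 1.5 cm cover and kept in a greenhouse at 25° C. to 30° C. Fourteen days on, foliage received an even spray of the diluted emulsion. Herbicidal or crop effect was judged three weeks afterwards.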

[4] = tested on: barnyard grass; assay: Test Example 3: herbicidal effect by foliage application, Wagner pot (Table 18, symbol H); type: in vivo, barnyard grass (Echinochloa crus-galli); details: amount of applied herbicide 320 g/ha
Summary of the method: (§3)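 Plants were sown in alluvial soil held under 0.1–0.5 cm standing water and grown 14 days in a greenhouse at 25–30 °C. An emulsifiable formulation, water-diluted to the set dose, was then sprayed onto the foliage, and effects were scored three weeks later using previously defined criteria.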

[5] = tested on: chickweed; assay: Test Example 4: herbicidal effect by soil treatment (Table 19, symbol P); type: in vivo, common chickweed (Stellaria media); details: amount of applied herbicide 320 g/ha
Summary of the method: as §1

[6] = tested on: rice flat sedge; assay: Test Example 3: herbicidal effect by foliage application, Wagner pot (Table 18, symbol E); type: in vivo, rice flat sedge (Cyperus iria); details: amount of applied herbicide 320 g/ha
Summary of the method: as §3

[7] = tested on: windgrass; assay: Test Example 5: herbicidal effect by foliage application, plastic box (Table 20, symbol L); type: in vivo, windgrass (Apera spica-venti); details: foliage application, 320 g/ha, evaluated three weeks after application
Summary of the method: as §2

[8] = tested on: southern crabgrass; assay: Test Example 5: herbicidal effect by foliage application, plastic box (Table 20, symbol F); type: in vivo, southern crabgrass (Digitaria ciliaris); details: foliage application, 320 g/ha, evaluated three weeks after application
Summary of the method: as §2

[9] = tested on: velvetleaf; assay: Test Example 5: herbicidal effect by foliage application, plastic box (Table 20, symbol M); type: in vivo, velvetleaf (Abutilon theophrasti); details: foliage application, 320 g/ha, evaluated three weeks after application
Summary of the method: as §2

[10] = tested on: Chinese sprangletop; assay: Test Example 3: herbicidal effect by foliage application, Wagner pot (Table 18, symbol D); type: in vivo, chinese sprangletop (Leptochloa chinensis); details: amount of applied herbicide 320 g/ha
Summary of the method: as §3

[11] = tested on: blackgrass; assay: Test Example 4: herbicidal effect by soil treatment (Table 19, symbol J); type: in vivo, blackgrass (Alopecurus myosuroides); details: amount of applied herbicide 320 g/ha
Summary of the method: as §1

[12] = tested on: green foxtail; assay: Test Example 4: herbicidal effect by soil treatment (Table 19, symbol G); type: in vivo, green foxtail (Setaria viridis); details: amount of applied herbicide 320 g/ha
Summary of the method: as §1

[13] = tested on: oval-leafed pondweed; assay: Test Example 1: herbicidal activity, application before weed generation under submerged conditions (Table 16, symbol C); type: in vivo, oval-leafed pondweed (Monochoria vaginalis); details: 320 g/ha applied herbicide
Summary of the method: (§4)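 Submerged Wagner pots (alluvial soil, 4 cm water) sown with weed seeds and planted with 2.5-leaf rice seedlings; emulsifiable concentrate diluted in water applied to water surface on sowing day. Held in greenhouse at 25-30 °C; injury scored 0-5 by herbicidal rate after three weeks.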

[14] = tested on: redroot pigweed; assay: Test Example 5: herbicidal effect by foliage application, plastic box (Table 20, symbol N); type: in vivo, redroot pigweed (Amaranthus retroflexus); details: foliage application, 320 g/ha, evaluated three weeks after application
Summary of the method: as §2

[15] = tested on: late watergrass; assay: Test Example 1: herbicidal activity, application before weed generation under submerged conditions (Table 16, symbol A); type: in vivo, late watergrass (Echinochloa oryzicola); details: 320 g/ha applied herbicide
Summary of the method: as §4

[16] = tested on: wild oat; assay: Test Example 4: herbicidal effect by soil treatment (Table 19, symbol I); type: in vivo, wild oat (Avena fatua); details: amount of applied herbicide 320 g/ha
Summary of the method: as §1

[17] = tested on: green foxtail; assay: Test Example 5: herbicidal effect by foliage application, plastic box (Table 20, symbol G); type: in vivo, green foxtail (Setaria viridis); details: foliage application, 320 g/ha, evaluated three weeks after application
Summary of the method: as §2

[18] = tested on: velvetleaf; assay: Test Example 4: herbicidal effect by soil treatment (Table 19, symbol M); type: in vivo, velvetleaf (Abutilon theophrasti); details: amount of applied herbicide 320 g/ha
Summary of the method: as §1

[19] = tested on: redroot pigweed; assay: Test Example 4: herbicidal effect by soil treatment (Table 19, symbol N); type: in vivo, redroot pigweed (Amaranthus retroflexus); details: amount of applied herbicide 320 g/ha
Summary of the method: as §1

[20] = tested on: Japanese bulrush; assay: Test Example 1: herbicidal activity, application before weed generation under submerged conditions (Table 16, symbol B); type: in vivo, Japanese bulrush (Schoenoplectus juncoides); details: 320 g/ha applied herbicide
Summary of the method: as §4

[21] = tested on: lambsquarters; assay: Test Example 5: herbicidal effect by foliage application, plastic box (Table 20, symbol O); type: in vivo, lambsquarters (Chenopodium album); details: foliage application, 320 g/ha, evaluated three weeks after application
Summary of the method: as §2

[22] = tested on: chickweed; assay: Test Example 5: herbicidal effect by foliage application, plastic box (Table 20, symbol P); type: in vivo, common chickweed (Stellaria media); details: foliage application, 320 g/ha, evaluated three weeks after application
Summary of the method: as §2

[23] = tested on: wild oat; assay: Test Example 5: herbicidal effect by foliage application, plastic box (Table 20, symbol I); type: in vivo, wild oat (Avena fatua); details: foliage application, 320 g/ha, evaluated three weeks after application
Summary of the method: as §2

[24] = tested on: blackgrass; assay: Test Example 5: herbicidal effect by foliage application, plastic box (Table 20, symbol J); type: in vivo, blackgrass (Alopecurus myosuroides); details: foliage application, 320 g/ha, evaluated three weeks after application
Summary of the method: as §2

[25] = tested on: barnyard grass; assay: Test Example 4: herbicidal effect by soil treatment (Table 19, symbol H); type: in vivo, barnyard grass (Echinochloa crus-galli); details: amount of applied herbicide 320 g/ha
Summary of the method: as §1

[26] = tested on: lambsquarters; assay: Test Example 4: herbicidal effect by soil treatment (Table 19, symbol O); type: in vivo, lambsquarters (Chenopodium album); details: amount of applied herbicide 320 g/ha
Summary of the method: as §1

[27] = tested on: Italian ryegrass; assay: Test Example 4: herbicidal effect by soil treatment (Table 19, symbol K); type: in vivo, Italian ryegrass (Lolium multiflorum); details: amount of applied herbicide 320 g/ha
Summary of the method: as §1

[28] = tested on: persian speedwell; assay: Test Example 5: herbicidal effect by foliage application, plastic box (Table 20, symbol R); type: in vivo, Persian speedwell (Veronica persica); details: foliage application, 320 g/ha, evaluated three weeks after application
Summary of the method: as §2

[29] = tested on: barnyard grass; assay: Test Example 5: herbicidal effect by foliage application, plastic box (Table 20, symbol H); type: in vivo, barnyard grass (Echinochloa crus-galli); details: foliage application, 320 g/ha, evaluated three weeks after application
Summary of the method: as §2

[30] = tested on: persian speedwell; assay: Test Example 4: herbicidal effect by soil treatment (Table 19, symbol R); type: in vivo, Persian speedwell (Veronica persica); details: amount of applied herbicide 320 g/ha
Summary of the method: as §1

Row | Compound | F: southern crabgrass, herbicidal effect rating [1] | L: windgrass, herbicidal effect rating [2] | herbicidal effect on K: Italian ryegrass (criteria 0-5) [3] | herbicidal effect on H: barnyard grass [4] | P: chickweed, herbicidal effect rating [5] | herbicidal effect on E: rice flat sedge [6] | herbicidal effect on L: windgrass (criteria 0-5) [7] | herbicidal effect on F: southern crabgrass (criteria 0-5) [8] | herbicidal effect on M: velvetleaf (criteria 0-5) [9] | herbicidal effect on D: Chinese sprangletop [10] | J: blackgrass, herbicidal effect rating [11] | G: green foxtail, herbicidal effect rating [12] | Herbicidal effect on C: oval-leafed pondweed (grade 0-5) [13] | herbicidal effect on N: redroot pigweed (criteria 0-5) [14] | Herbicidal effect on A: late watergrass (grade 0-5) [15] | I: wild oat, herbicidal effect rating [16] | herbicidal effect on G: green foxtail (criteria 0-5) [17] | M: velvetleaf, herbicidal effect rating [18] | N: redroot pigweed, herbicidal effect rating [19] | Herbicidal effect on B: Japanese bulrush (grade 0-5) [20] | also measured
1 | COc1ccccc1-c1sc2ccc(C#C[Si](C)(C)C)cc2c1-c1c(O)c(C)nn(C)c1=O [2-188] | 0 (Herbicidal rate of 5% or less (almost no effect)) | 0 (Herbicidal rate of 5% or less (almost no effect)) | 4 (Herbicidal rate of 70% or more and less than 90%) | 4 (Herbicidal rate of 70% or more and less than 90%) | 0 (Herbicidal rate of 5% or less (almost no effect)) | 0 (Herbicidal rate of 5% or less (almost no effect)) | 4 (Herbicidal rate of 70% or more and less than 90%) | 3 (Herbicidal rate of 40% or more and less than 70%) | 0 (Herbicidal rate of 5% or less (almost no effect)) | 3 (Herbicidal rate of 40% or more and less than 70%) | 0 (Herbicidal rate of 5% or less (almost no effect)) | 0 (Herbicidal rate of 5% or less (almost no effect)) | 0 (Herbicidal rate of 5% or less (almost no effect)) | 3 (Herbicidal rate of 40% or more and less than 70%) | 4 (Herbicidal rate of 70% or more and less than 90%) | 0 (Herbicidal rate of 5% or less (almost no effect)) | 0 (Herbicidal rate of 5% or less (almost no effect)) | 0 (Herbicidal rate of 5% or less (almost no effect)) | 5 (Herbicidal rate of 90% or more (almost completely withered)) | 0 (Herbicidal rate of 5% or less (almost no effect)) | herbicidal effect on O: lambsquarters (criteria 0-5) [21]: 2 (Herbicidal rate of 20% or more and less than 40%); herbicidal effect on P: chickweed (criteria 0-5) [22]: 5 (Herbicidal rate of 90% or more (almost completely withered)); herbicidal effect on I: wild oat (criteria 0-5) [23]: 0 (Herbicidal rate of 5% or less (almost no effect)); herbicidal effect on J: blackgrass (criteria 0-5) [24]: 4 (Herbicidal rate of 70% or more and less than 90%); H: barnyard grass, herbicidal effect rating [25]: 0 (Herbicidal rate of 5% or less (almost no effect)); O: lambsquarters, herbicidal effect rating [26]: 3 (Herbicidal rate of 40% or more and less than 70%); K: Italian ryegrass, herbicidal effect rating [27]: 0 (Herbicidal rate of 5% or less (almost no effect)); herbicidal effect on R: persian speedwell (criteria 0-5) [28]: 1 (Herbicidal rate of 5% or more and less than 20%); herbicidal effect on H: barnyard grass (criteria 0-5) [29]: 1 (Herbicidal rate of 5% or more and less than 20%); R: persian speedwell, herbicidal effect rating [30]: 0 (Herbicidal rate of 5% or less (almost no effect))
2 | COc1ccccc1-c1sc2ccc(C#N)cc2c1-c1c(O)c(C)nn(C)c1=O [2-190] | 0 (Herbicidal rate of 5% or less (almost no effect)) | 0 (Herbicidal rate of 5% or less (almost no effect)) | 0 (Herbicidal rate of 5% or less (almost no effect)) | 2 (Herbicidal rate of 20% or more and less than 40%) | 0 (Herbicidal rate of 5% or less (almost no effect)) | 4 (Herbicidal rate of 70% or more and less than 90%) | 0 (Herbicidal rate of 5% or less (almost no effect)) | 0 (Herbicidal rate of 5% or less (almost no effect)) | 3 (Herbicidal rate of 40% or more and less than 70%) | 2 (Herbicidal rate of 20% or more and less than 40%) | 0 (Herbicidal rate of 5% or less (almost no effect)) | 0 (Herbicidal rate of 5% or less (almost no effect)) | 0 (Herbicidal rate of 5% or less (almost no effect)) | 3 (Herbicidal rate of 40% or more and less than 70%) | 3 (Herbicidal rate of 40% or more and less than 70%) | 0 (Herbicidal rate of 5% or less (almost no effect)) | 0 (Herbicidal rate of 5% or less (almost no effect)) | 0 (Herbicidal rate of 5% or less (almost no effect)) | 3 (Herbicidal rate of 40% or more and less than 70%) | 0 (Herbicidal rate of 5% or less (almost no effect)) | herbicidal effect on O: lambsquarters (criteria 0-5) [21]: 2 (Herbicidal rate of 20% or more and less than 40%); herbicidal effect on P: chickweed (criteria 0-5) [22]: 5 (Herbicidal rate of 90% or more (almost completely withered)); herbicidal effect on I: wild oat (criteria 0-5) [23]: 0 (Herbicidal rate of 5% or less (almost no effect)); herbicidal effect on J: blackgrass (criteria 0-5) [24]: 0 (Herbicidal rate of 5% or less (almost no effect)); H: barnyard grass, herbicidal effect rating [25]: 0 (Herbicidal rate of 5% or less (almost no effect)); O: lambsquarters, herbicidal effect rating [26]: 5 (Herbicidal rate of 90% or more (almost completely withered)); K: Italian ryegrass, herbicidal effect rating [27]: 0 (Herbicidal rate of 5% or less (almost no effect)); herbicidal effect on R: persian speedwell (criteria 0-5) [28]: 5 (Herbicidal rate of 90% or more (almost completely withered)); herbicidal effect on H: barnyard grass (criteria 0-5) [29]: 0 (Herbicidal rate of 5% or less (almost no effect)); R: persian speedwell, herbicidal effect rating [30]: 0 (Herbicidal rate of 5% or less (almost no effect))
